In ChEMBL document CHEMBL1150499, “Excitatory amino acids: 6-phosphonomethyltetrahydro-4-pyrimidinecarboxylic acids and their acyclic analogues are competitive N-methyl-D-aspartic acid receptor antagonists” (Bioorg Med Chem Lett, 1992):

Target: Glutamate NMDA receptor
Assay: Compound was evaluated for its ability to displace […] binding for NMDA receptor
Type: protein-complex assay

Row | Structure (SMILES) | IC50 [nM]
1 | O=C(O)C1CN(CCCP(=O)(O)O)CCN1 (stereo not drawn) | 28
2 | NC(CC(N)C(=O)O)CP(=O)(O)O (stereo not drawn) | 1440
3 | NC(CC(O)CP(=O)(O)O)C(=O)O (stereo not drawn) | 130
4 | O=C(O)C1CC(CP(=O)(O)O)N=CN1 (stereo not drawn) | 5950
5 | NC(CCCP(=O)(O)O)CC(N)C(=O)O (stereo not drawn) | 2270

Other lines, results leading:

Row | IC50 [nM] | Structure (SMILES)
6 | 240 | NC(CC(CP(=O)(O)O)S(=O)O)C(=O)O (stereo not drawn)
7 | 420 | O=C(O)C1CC(CCCP(=O)(O)O)N=CN1 (stereo not drawn)
8 | 24 | O=C(O)[C@@H]1C[C@H](CP(=O)(O)O)CCN1 [SELFOTEL]
